From US10010545B1, “Antibiotic compositions and methods of use” (University of South Florida, priority 2013, dated 2018)

Key:
Enterococcus faecium = experiment: Growth testing against ESKAPE pathogens: Enterococcus faecium; format: cell-based; design: key: Growth; X: No Growth
Protocol: (§1) Six analogs (FIG. 2) of the ciprofloxacin-N thiolated β-lactam were successfully synthesized. All these compounds were then tested against ESKAPE pathogens for bioactivity. The ESKAPE pathogens are a collection of six deadly superbugs, Enterococcus faecium, Staphylococcus aureus, Klebsiella pneumoniae, Acinetobacter baumannii, Pseudomonas aeruginosa, and Enterobacter species. […] G denotes growth and X denotes no growth in the tables.

Staphylococcus aureus = experiment: Growth testing against ESKAPE pathogens: Staphylococcus aureus; format: cell-based; design: key to Activity against Staphylococcus aureus (growth observed): Growth; X: No Growth
Protocol: as §1

Klebesiella pneumonia = experiment: Growth testing against ESKAPE pathogens: Klebesiella pneumonia; format: cell-based, Klebsiella pneumoniae; design: key: Growth; X: No Growth
Protocol: as §1

Acinetobacter baumannii = experiment: Growth testing against ESKAPE pathogens: Acinetobacter baumannii; format: cell-based; design: key: Growth; X: No Growth
Protocol: as §1

Pseudomonas aeruginosa = experiment: Growth testing against ESKAPE pathogens: Pseudomonas aeruginosa; format: cell-based; design: key: Growth; X: No Growth
Protocol: as §1

CCCCCC(=O)N1CCN(c2cc3c(cc2F)c(=O)c(C(=O)OC2C(=O)N(c4ccc(OC)cc4)C2c2ccccc2Cl)cn3C2CC2)CC1 (centres unmarked) [Lactam 128]
G: Activity against Enterococcus faecium (growth observed) (Enterococcus faecium; 1 μg/ml) | Activity against Enterococcus faecium (growth observed) (Enterococcus faecium; 2 μg/ml) | Activity against Enterococcus faecium (growth observed) (Enterococcus faecium; 3 μg/ml) | Activity against Enterococcus faecium (growth observed) (Enterococcus faecium; 4 μg/ml) | Activity against Enterococcus faecium (growth observed) (Enterococcus faecium; 5 μg/ml) | Activity against Enterococcus faecium (growth observed) (Enterococcus faecium; 6 μg/ml) | Activity against Enterococcus faecium (growth observed) (Enterococcus faecium; 7 μg/ml) | Activity against Enterococcus faecium (growth observed) (Enterococcus faecium; 8 μg/ml) | Activity against Enterococcus faecium (growth observed) (Enterococcus faecium; 9 μg/ml) | Activity against Enterococcus faecium (growth observed) (Enterococcus faecium; 10 μg/ml) | Activity against Enterococcus faecium (growth observed) (Enterococcus faecium; 25 μg/ml) | Activity against Staphylococcus aureus (growth observed) (Staphylococcus aureus; 1 μg/ml) | Activity against Staphylococcus aureus (growth observed) (Staphylococcus aureus; 2 μg/ml) | Activity against Staphylococcus aureus (growth observed) (Staphylococcus aureus; 3 μg/ml) | Activity against Staphylococcus aureus (growth observed) (Staphylococcus aureus; 4 μg/ml) | Activity against Staphylococcus aureus (growth observed) (Staphylococcus aureus; 5 μg/ml) | Activity against Staphylococcus aureus (growth observed) (Staphylococcus aureus; 6 μg/ml) | Activity against Staphylococcus aureus (growth observed) (Staphylococcus aureus; 7 μg/ml) | Activity against Staphylococcus aureus (growth observed) (Staphylococcus aureus; 8 μg/ml) | Activity against Staphylococcus aureus (growth observed) (Staphylococcus aureus; 9 μg/ml) | Activity against Staphylococcus aureus (growth observed) (Staphylococcus aureus; 10 μg/ml) | Activity against Staphylococcus aureus (growth observed) (Staphylococcus aureus; 25 μg/ml) | Activity against Klebesiella pneumonia (growth observed) (Klebesiella pneumonia; 1 μg/ml) | Activity against Klebesiella pneumonia (growth observed) (Klebesiella pneumonia; 2 μg/ml) | Activity against Klebesiella pneumonia (growth observed) (Klebesiella pneumonia; 3 μg/ml) | Activity against Klebesiella pneumonia (growth observed) (Klebesiella pneumonia; 4 μg/ml) | Activity against Klebesiella pneumonia (growth observed) (Klebesiella pneumonia; 5 μg/ml) | Activity against Klebesiella pneumonia (growth observed) (Klebesiella pneumonia; 6 μg/ml) | Activity against Klebesiella pneumonia (growth observed) (Klebesiella pneumonia; 7 μg/ml) | Activity against Klebesiella pneumonia (growth observed) (Klebesiella pneumonia; 8 μg/ml) | Activity against Klebesiella pneumonia (growth observed) (Klebesiella pneumonia; 9 μg/ml) | Activity against Klebesiella pneumonia (growth observed) (Klebesiella pneumonia; 10 μg/ml) | Activity against Klebesiella pneumonia (growth observed) (Klebesiella pneumonia; 25 μg/ml) | Activity against Acinetobacter baumannii (growth observed) (Acinetobacter baumannii; 1 μg/ml) | Activity against Acinetobacter baumannii (growth observed) (Acinetobacter baumannii; 2 μg/ml) | Activity against Acinetobacter baumannii (growth observed) (Acinetobacter baumannii; 3 μg/ml) | Activity against Acinetobacter baumannii (growth observed) (Acinetobacter baumannii; 4 μg/ml) | Activity against Acinetobacter baumannii (growth observed) (Acinetobacter baumannii; 5 μg/ml) | Activity against Acinetobacter baumannii (growth observed) (Acinetobacter baumannii; 6 μg/ml) | Activity against Acinetobacter baumannii (growth observed) (Acinetobacter baumannii; 7 μg/ml) | Activity against Acinetobacter baumannii (growth observed) (Acinetobacter baumannii; 8 μg/ml) | Activity against Acinetobacter baumannii (growth observed) (Acinetobacter baumannii; 9 μg/ml) | Activity against Acinetobacter baumannii (growth observed) (Acinetobacter baumannii; 10 μg/ml) | Activity against Acinetobacter baumannii (growth observed) (Acinetobacter baumannii; 25 μg/ml) | Activity against Pseudomonas aeruginosa (growth observed) (Pseudomonas aeruginosa; 1 μg/ml) | Activity against Pseudomonas aeruginosa (growth observed) (Pseudomonas aeruginosa; 2 μg/ml) | Activity against Pseudomonas aeruginosa (growth observed) (Pseudomonas aeruginosa; 3 μg/ml) | Activity against Pseudomonas aeruginosa (growth observed) (Pseudomonas aeruginosa; 4 μg/ml) | Activity against Pseudomonas aeruginosa (growth observed) (Pseudomonas aeruginosa; 5 μg/ml) | Activity against Pseudomonas aeruginosa (growth observed) (Pseudomonas aeruginosa; 6 μg/ml) | Activity against Pseudomonas aeruginosa (growth observed) (Pseudomonas aeruginosa; 7 μg/ml) | Activity against Pseudomonas aeruginosa (growth observed) (Pseudomonas aeruginosa; 8 μg/ml) | Activity against Pseudomonas aeruginosa (growth observed) (Pseudomonas aeruginosa; 9 μg/ml) | Activity against Pseudomonas aeruginosa (growth observed) (Pseudomonas aeruginosa; 10 μg/ml) | Activity against Pseudomonas aeruginosa (growth observed) (Pseudomonas aeruginosa; 25 μg/ml)

CCCCCC(=O)N1CCN(c2cc3c(cc2F)c(=O)c(C(=O)OC2C(=O)N(SC(C)CC)C2c2ccccc2Cl)cn3C2CC2)CC1 (centres unmarked) [Lactam 129]
G: Activity against Enterococcus faecium (growth observed) (Enterococcus faecium; 1 μg/ml) | Activity against Enterococcus faecium (growth observed) (Enterococcus faecium; 2 μg/ml) | Activity against Enterococcus faecium (growth observed) (Enterococcus faecium; 3 μg/ml) | Activity against Enterococcus faecium (growth observed) (Enterococcus faecium; 4 μg/ml) | Activity against Enterococcus faecium (growth observed) (Enterococcus faecium; 5 μg/ml) | Activity against Enterococcus faecium (growth observed) (Enterococcus faecium; 6 μg/ml) | Activity against Enterococcus faecium (growth observed) (Enterococcus faecium; 7 μg/ml) | Activity against Enterococcus faecium (growth observed) (Enterococcus faecium; 8 μg/ml) | Activity against Enterococcus faecium (growth observed) (Enterococcus faecium; 9 μg/ml) | Activity against Enterococcus faecium (growth observed) (Enterococcus faecium; 10 μg/ml) | Activity against Enterococcus faecium (growth observed) (Enterococcus faecium; 25 μg/ml) | Activity against Staphylococcus aureus (growth observed) (Staphylococcus aureus; 1 μg/ml) | Activity against Staphylococcus aureus (growth observed) (Staphylococcus aureus; 2 μg/ml) | Activity against Staphylococcus aureus (growth observed) (Staphylococcus aureus; 3 μg/ml) | Activity against Staphylococcus aureus (growth observed) (Staphylococcus aureus; 4 μg/ml) | Activity against Staphylococcus aureus (growth observed) (Staphylococcus aureus; 5 μg/ml) | Activity against Staphylococcus aureus (growth observed) (Staphylococcus aureus; 6 μg/ml) | Activity against Staphylococcus aureus (growth observed) (Staphylococcus aureus; 7 μg/ml) | Activity against Staphylococcus aureus (growth observed) (Staphylococcus aureus; 8 μg/ml) | Activity against Staphylococcus aureus (growth observed) (Staphylococcus aureus; 9 μg/ml) | Activity against Staphylococcus aureus (growth observed) (Staphylococcus aureus; 10 μg/ml) | Activity against Staphylococcus aureus (growth observed) (Staphylococcus aureus; 25 μg/ml) | Activity against Klebesiella pneumonia (growth observed) (Klebesiella pneumonia; 1 μg/ml) | Activity against Klebesiella pneumonia (growth observed) (Klebesiella pneumonia; 2 μg/ml) | Activity against Klebesiella pneumonia (growth observed) (Klebesiella pneumonia; 3 μg/ml) | Activity against Klebesiella pneumonia (growth observed) (Klebesiella pneumonia; 4 μg/ml) | Activity against Klebesiella pneumonia (growth observed) (Klebesiella pneumonia; 5 μg/ml) | Activity against Klebesiella pneumonia (growth observed) (Klebesiella pneumonia; 6 μg/ml) | Activity against Klebesiella pneumonia (growth observed) (Klebesiella pneumonia; 7 μg/ml) | Activity against Klebesiella pneumonia (growth observed) (Klebesiella pneumonia; 8 μg/ml) | Activity against Klebesiella pneumonia (growth observed) (Klebesiella pneumonia; 9 μg/ml) | Activity against Klebesiella pneumonia (growth observed) (Klebesiella pneumonia; 10 μg/ml) | Activity against Klebesiella pneumonia (growth observed) (Klebesiella pneumonia; 25 μg/ml) | Activity against Acinetobacter baumannii (growth observed) (Acinetobacter baumannii; 1 μg/ml) | Activity against Acinetobacter baumannii (growth observed) (Acinetobacter baumannii; 2 μg/ml) | Activity against Acinetobacter baumannii (growth observed) (Acinetobacter baumannii; 3 μg/ml) | Activity against Acinetobacter baumannii (growth observed) (Acinetobacter baumannii; 4 μg/ml) | Activity against Acinetobacter baumannii (growth observed) (Acinetobacter baumannii; 5 μg/ml) | Activity against Acinetobacter baumannii (growth observed) (Acinetobacter baumannii; 6 μg/ml) | Activity against Acinetobacter baumannii (growth observed) (Acinetobacter baumannii; 7 μg/ml) | Activity against Acinetobacter baumannii (growth observed) (Acinetobacter baumannii; 8 μg/ml) | Activity against Acinetobacter baumannii (growth observed) (Acinetobacter baumannii; 9 μg/ml) | Activity against Acinetobacter baumannii (growth observed) (Acinetobacter baumannii; 10 μg/ml) | Activity against Acinetobacter baumannii (growth observed) (Acinetobacter baumannii; 25 μg/ml) | Activity against Pseudomonas aeruginosa (growth observed) (Pseudomonas aeruginosa; 1 μg/ml) | Activity against Pseudomonas aeruginosa (growth observed) (Pseudomonas aeruginosa; 2 μg/ml) | Activity against Pseudomonas aeruginosa (growth observed) (Pseudomonas aeruginosa; 3 μg/ml) | Activity against Pseudomonas aeruginosa (growth observed) (Pseudomonas aeruginosa; 4 μg/ml) | Activity against Pseudomonas aeruginosa (growth observed) (Pseudomonas aeruginosa; 5 μg/ml) | Activity against Pseudomonas aeruginosa (growth observed) (Pseudomonas aeruginosa; 6 μg/ml) | Activity against Pseudomonas aeruginosa (growth observed) (Pseudomonas aeruginosa; 7 μg/ml) | Activity against Pseudomonas aeruginosa (growth observed) (Pseudomonas aeruginosa; 8 μg/ml) | Activity against Pseudomonas aeruginosa (growth observed) (Pseudomonas aeruginosa; 9 μg/ml) | Activity against Pseudomonas aeruginosa (growth observed) (Pseudomonas aeruginosa; 10 μg/ml) | Activity against Pseudomonas aeruginosa (growth observed) (Pseudomonas aeruginosa; 25 μg/ml)
